In assay [1] the test system is tetrabenazine-induced depression. Description: prevention of tetrabenazine-induced sedation and depression in mice (exploratory activity and ptosis). The assay is classed as in vivo, Carworth CF1 S female mice. The following applies: for ED50: Mus musculus, po; for ED50 Ptosis / ED50 Exploratory: 60 min. An excerpt: A standard procedure for detecting and comparing the antidepressant activity of compounds in this series for which there is good correlation with human efficacy is the prevention of tetrabenazine-induced sedation and depression in mice. (Everett, "The Dopa Response Potentiation Test and Its Use in Screening for Antidepressant Drugs", pp. 164-167 in "Antidepressant Drugs" [Proceedings of the First International Symposium], S. Garattini and M. N. G. Dukes, eds., 1967.).
Groups of 10 Carworth CF1 S female mice, 18-21 g. each, were fasted 1.5 hours and were intubated with antagonist compounds at oral doses of 0, 5, 25, and 125 mg/kg or 0, 1, 3, 9, 27, and 81 mg/kg in 0.20 ml. of 1% Methocel (methylcellulose) 1.25% Tween 80. The mice were challenged 30 minutes later with tetrabenazine (as the methane-sulfonate), 32 mg/kg intraperitoneally (dissolved in 0.20 ml. 0.05M KCl at pH 2.0). One hour after antagonist (30 minutes after tetrabenazine), the mice were examined for signs of exploratory activity and ptosis (eyelid closure). Normal exploratory activity (relief from sedation) was recorded when a mouse lifted by the tail from a group of 10 in a testing box and placed on a stainless steel testing box lid (12.5" × 8" with 0.33" mesh) either turned its head horizontally 30° in both direction or moved to the edge of the screen within 10 seconds after being placed on the screen. Relief from ptosis was recorded when exactly 2 seconds after placing the mouse facing the observer, lid closure was less than 50% in both eyes.
For comparison, the marketed antidepressant Amitriptyline was also tested, and an ED50 (effective dose in 50% of the cases) was determined. The lower the ED50, the better the antidepressant.

The subject of a further assay is monoamine oxidase (MAO). Description: tryptamine potentiation in mice (monoamine oxidase inhibition). The assay is classed as in vivo. An excerpt:
(§1) An antidepressant which acts by inhibiting MAO is not acceptable.

In assay [2] the test system is hexabarbitol potentiation. Description: hexabarbitol potentiation in mice (sedative qualities). The assay is classed as in vivo.
Description: as §1

Where [3] appears, read: Table I, orally, 1 hour post-drug, tetrabenazine 32 mg/kg i.p. 30 min after drug, relief from ptosis.
The mark [4] stands for this setting: Table I, orally, 1 hour post-drug, tetrabenazine 32 mg/kg i.p. 30 min after drug, relief from sedation (exploratory activity).
Where [5] appears, read: Table II (formula II compounds), orally, 1 hour post-drug, relief from ptosis, read-out: ED50 Ptosis.
Where [6] appears, read: Table II (formula II compounds), orally, 1 hour post-drug, relief from sedation (exploratory activity), read-out: ED50 Exploratory.

The text below walks through data of US4123546A, “Antidepressant compounds” (E. I. Du Pont de Nemours and Company, priority 1977, dated 1978).

Counter-ions that a name gives are not always drawn. Like-named read-outs stand apart in the source and are kept apart here.

Turning to `CN(C)CCC=C1c2ccccc2CCc2ccccc21` [Amitriptylene . HCl, reference compound], the ED50 in assay [1] (Table I, orally, 1 hour post-drug, tetrabenazine 32 mg/kg i.p. 30 min after drug, relief from ptosis, read-out: ED50 Ptosis) was 1.5 mg/kg; in assay [1] (Table I, orally, 1 hour post-drug, tetrabenazine 32 mg/kg i.p. 30 min after drug, relief from sedation (exploratory activity), read-out: ED50 Exploratory) it was 3.7 mg/kg.

Turning to `CN(C)CCCOC12c3ccccc3C3C(c4ccccc41)N32` (stereo not drawn) [CH2 CH2 CH2 N(CH3)2, 3-[(4b, 4c-Dihydro-8bH-azirino[2,1,3-cd]dibenzo[a,f]-pyrrolizin-8b-yl)oxy]propyl-N,N-dimethylamine], the ED50 in assay [1] (1 h, read-out: ED50 Exploratory, Table I, orally, 1 hour post-drug, tetrabenazine 32 mg/kg i.p. 30 min after drug, relief from sedation (exploratory activity)) is 67 mg/kg; in assay [1] (1 h, read-out: ED50 Ptosis, Table I, orally, 1 hour post-drug, tetrabenazine 32 mg/kg i.p. 30 min after drug, relief from ptosis), 56 mg/kg.

As for `CN(C)CCOC12c3ccccc3C3C(c4ccccc41)N32` (stereo not drawn) [CH2 CH2 N(CH3)2 . Maleate, 2-[4b, 4c-Dihydro-8bH-azirino[2,1,3-cd]dibenzo[a,f]pyrrolizin-8b-yl)oxy]ethyl-N,N-dimethylamine Maleate], the “ED50 Ptosis” value in assay [1] (setting [3]) is reported as 8 mg/kg. Moreover, the “ED50 Exploratory” value in assay [1] (setting [4]) worked out at 9 mg/kg.

In the case of `CN(C)CCOC12NC(c3ccccc31)C(Cl)c1ccccc12` (stereo not drawn) [CH2 CH2 N(CH3)2 H Cl, 10,11-Dihydro-5,10-imino-5-[2-(N,N-dimethylamino)-ethoxy]-11-chloro-5H-dibenzo[a,d]cycloheptene], the ED50 in assay [1] (setting [5]) is 15 mg/kg; in assay [1] (setting [6]), 25 mg/kg.

Consider `CN(C)CCOC12NC(Cc3ccccc31)c1ccccc12` (stereo not drawn) [CH2 CH2 N(CH3)2 H H, 10,11-Dihydro-5,10-imino-5-[2-(N,N-dimethylamino)-ethoxy]-5H-dibenzo[a,d]cycloheptene], for which the ED50 in assay [1] (setting [5]) and in assay [1] (setting [6]) was 15 mg/kg in each case.

For `CN(C)CCOC12c3ccccc3C3C(c4ccccc41)N32` (stereo not drawn) [CH2 CH2 N(CH3)2, 2-[(4b, 4c-Dihydro-8bH-azirino[2,1,3-cd]dibenzo[a,f]pyrrolizin-8b-yl)oxy]ethyl-N,N-dimethylamine], in assay [1] (setting [3]), the “ED50 Ptosis” value worked out at 2 mg/kg. Moreover, the “ED50 Exploratory” value in assay [1] (setting [4]) came out at 2 mg/kg. In the assay on monoamine oxidase (MAO) (implied by lack of tryptamine potentiation in mice), the “monoamine oxidase (MAO) inhibition” value was “not a monoamine oxidase (MAO) inhibitor”. In the assay on monoamine oxidase (MAO) (in mice), the potentiation of tryptamine result was “not to potentiate tryptamine in mice”. In assay [2] (implied by hexabarbitol potentiation in mice, at high doses), the sedative qualities result is given as “sedative qualities at high doses”. Moreover, in assay [2] (in mice), the potentiation of hexabarbitol result is “potentiates hexabarbitol in mice”.

Take `NCCOC12c3ccccc3C3C(c4ccccc41)N32` (stereo not drawn) [CH2 CH2 NH2 . Maleate]: the “ED50 Ptosis” value in assay [1] (setting [3]) worked out at 10.3 mg/kg. In assay [1] (setting [4]), the “ED50 Exploratory” value turned out to be 11.8 mg/kg.

Take `NCCOC12c3ccccc3C3C(c4ccccc41)N32` (stereo not drawn) [CH2 CH2 NH2 . Tartate]: the “ED50 Ptosis” value in assay [1] (setting [3]) turned out to be 2.7 mg/kg. For the same compound, the “ED50 Exploratory” value in assay [1] (setting [4]) is listed as 3.3 mg/kg.

With `NCCOC12NC(c3ccccc31)C(Cl)c1ccccc12` (stereo not drawn) [CH2 CH2 NH2 H Cl, 10,11-Dihydro-5,10-imino-5-(2-aminoethoxy)-11-chloro-5H-dibenzo[a,d]cycloheptene], the ED50 in assay [1] (setting [5]) and in assay [1] (setting [6]) was 37 mg/kg throughout.

For `NCCOC12c3ccccc3C3C(c4ccccc41)N32` (stereo not drawn) [CH2 CH2 NH2], in assay [1] (setting [3]), the “ED50 Ptosis” value turned out to be 1 mg/kg. In addition, in assay [1] (setting [4]), the “ED50 Exploratory” value is 2 mg/kg.
